# In PubChem BioAssay AID330 (DTP/NCI, 2004):
# Inconclusive results and toxic doses are left out.
# System: P388 leukemia ip, CD2F1 mice, survival T/C
# Test: NCI In Vivo Anticancer Drug Screen. Data for tumor model P388 Leukemia (intraperitoneal) in CD2F1 (CDF1) mice
# Settings: endpoint: median survival time, higher = longer survival
# In short: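 Mice carrying the transplanted tumor received test compound or vehicle. Survival was recorded in each group, and the value is the treated-group measurement divided by that of the vehicle-treated control group.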
# [1] = dose: 50.0 mg/kg/injection, schedule: Q01DX009 (ip), vehicle: saline
# [2] = dose: 100.0 mg/kg/injection, schedule: Q01DX009 (ip), vehicle: saline
# [3] = dose: 50.0 mg/kg/injection, schedule: Q01DX005 (ip), vehicle: saline with Tween-80
# [4] = dose: 100.0 mg/kg/injection, schedule: Q01DX005 (ip), vehicle: saline with Tween-80
smiles,measurement,setting,value
O.O=[N+]([O-])O.[NH2-].[NH2-].[Pt+2],T/C,"dose: 0.04 mg/kg/injection, schedule: Q01DX009 (ip), vehicle: other",118 % of control
same,T/C,"dose: 0.16 mg/kg/injection, schedule: Q01DX009 (ip), vehicle: other",91 % of control
same,T/C,"dose: 0.31 mg/kg/injection, schedule: Q01DX009 (ip), vehicle: other",150 % of control
Nc1ccc2ccc(NS(=O)(=O)N3CCCCC3)cc2c1,T/C,"dose: 25.0 mg/kg/injection, schedule: Q01DX005 (ip), vehicle: saline with Tween-80",108 % of control
COc1ccc(OC)c(NC2=C(Cl)C(=O)C(Nc3cc(OC)ccc3OC)=C(Cl)C2=O)c1,T/C,"dose: 12.5 mg/kg/injection, schedule: Q01DX009 (ip), vehicle: saline with Tween-80",98 % of control
same,T/C,"dose: 25.0 mg/kg/injection, schedule: Q01DX009 (ip), vehicle: saline with Tween-80",97 % of control
same,T/C,"dose: 50.0 mg/kg/injection, schedule: Q01DX009 (ip), vehicle: saline with Tween-80",90 % of control
same,T/C,"dose: 100.0 mg/kg/injection, schedule: Q01DX009 (ip), vehicle: saline with Tween-80",87 % of control
same,T/C,"dose: 200.0 mg/kg/injection, schedule: Q01DX009 (ip), vehicle: saline with Tween-80",91 % of control
Cc1ccc2cccc(OC(=O)Nc3cc(Cl)c(Cl)cc3Cl)c2n1,T/C,"dose: 15.0 mg/kg/injection, schedule: Q01DX005 (ip), vehicle: saline with Tween-80",100 % of control
same,T/C,"dose: 30.0 mg/kg/injection, schedule: Q01DX005 (ip), vehicle: saline with Tween-80",93 % of control
same,T/C,"dose: 60.0 mg/kg/injection, schedule: Q01DX005 (ip), vehicle: saline with Tween-80",93 % of control
same,T/C,"dose: 240.0 mg/kg/injection, schedule: Q01DX005 (ip), vehicle: saline with Tween-80",94 % of control
COCCC(=O)NC1CCCC[CH]1[Hg][Cl] (centres undefined),T/C,"dose: 25.0 mg/kg/injection, schedule: Q04DX003 (ip), vehicle: Klucel (hydroxypropylcellulose) (HPC)",97 % of control
[Cl][Cr]([Cl])[Cl].[NH-]CC[N-]CC[NH-],T/C,[1],97 % of control
same,T/C,[2],109 % of control
same,T/C,"dose: 200.0 mg/kg/injection, schedule: Q01DX009 (ip), vehicle: saline",115 % of control
O=C1CC(c2ccccc2)NN1 (centres undefined),T/C,[1],103 % of control
same,T/C,[2],97 % of control
CC(C)(C)C(=O)CC(=O)C(C)(C)C.CC(C)(C)C(=O)CC(=O)C(C)(C)C.[Cu],T/C,"dose: 4.75 mg/kg/injection, schedule: Q01DX009 (ip), vehicle: saline with Tween-80",104 % of control
same,T/C,"dose: 9.5 mg/kg/injection, schedule: Q01DX009 (ip), vehicle: saline with Tween-80",95 % of control
same,T/C,"dose: 19.0 mg/kg/injection, schedule: Q01DX009 (ip), vehicle: saline with Tween-80",95 % of control
COc1cccc2c1C(=O)c1c(O)c3c(c(O)c1C2=O)CC(OC1CC(N)C(O)C(C)O1)(C(C)=O)CC3OC1CC(N)C(O)C(C)O1 (centres undefined),T/C,"dose: 1.56 mg/kg/injection, schedule: Q01DX009 (ip), vehicle: water",107 % of control
same,T/C,"dose: 3.13 mg/kg/injection, schedule: Q01DX009 (ip), vehicle: water",103 % of control
same,T/C,"dose: 6.25 mg/kg/injection, schedule: Q01DX009 (ip), vehicle: water",108 % of control
same,T/C,"dose: 12.5 mg/kg/injection, schedule: Q01DX009 (ip), vehicle: water",122 % of control
COC(=O)c1cc(CC[N+](C)(C)Cc2ccccc2)c2ccccn12,T/C,"dose: 6.25 mg/kg/injection, schedule: Q04DX002 (ip), vehicle: saline",104 % of control
same,T/C,"dose: 12.5 mg/kg/injection, schedule: Q04DX002 (ip), vehicle: saline",96 % of control
same,T/C,"dose: 25.0 mg/kg/injection, schedule: Q04DX002 (ip), vehicle: saline",106 % of control
CCC1(O)C(=O)OCc2c1cc1n(c2=O)Cc2cc3cc4c(cc3nc2-1)OCO4 (centres undefined),T/C,"dose: 1.0 mg/kg/injection, schedule: Q01DX005 (ip), vehicle: saline with Tween-80",177 % of control
same,T/C,"dose: 2.0 mg/kg/injection, schedule: Q01DX005 (ip), vehicle: saline with Tween-80",86 % of control
Cc1ccc(S(=O)(=O)NC(C)(COS(=O)(=O)c2ccc(C)cc2)COS(=O)(=O)c2ccc(C)cc2)cc1,T/C,"dose: 50.0 mg/kg/injection, schedule: Q01DX009 (ip), vehicle: Klucel (hydroxypropylcellulose) (HPC)",95 % of control
same,T/C,"dose: 100.0 mg/kg/injection, schedule: Q01DX009 (ip), vehicle: Klucel (hydroxypropylcellulose) (HPC)",96 % of control
same,T/C,"dose: 200.0 mg/kg/injection, schedule: Q01DX009 (ip), vehicle: Klucel (hydroxypropylcellulose) (HPC)",96 % of control
CC(=O)Nc1ccc2cc(-c3ccc(Cl)cc3)c3nnnn3c2n1,T/C,[3],96 % of control
same,T/C,[4],94 % of control
same,T/C,"dose: 200.0 mg/kg/injection, schedule: Q01DX005 (ip), vehicle: saline with Tween-80",93 % of control
CCCCCN(CCCCC)C(C)C(O)c1ccc2cc(Cl)c3ccccc3c2c1 (centres undefined),T/C,[3],99 % of control
same,T/C,[4],101 % of control
